Measurements taken from the NIST ThermoML archive (doi:10.1016/j.fluid.2012.08.024).

Tests used:
[1] = mn = molality of the nth substance listed, in mol/kg; conditions: 298.15 K, 101 kPa, Liquid; for molar conductivity: Alternating current cell with electrodes; for mass density: Vibrating tube method
[2] = refractive index (Na D-line) (dimensionless); mn = molality of the nth substance listed, in mol/kg; conditions: 298.15 K, 101 kPa, Liquid, Standard Abbe refractometry

CCCCCCn1cc[n+](C)c1.[Br-] [3-hexyl-1-methyl-1H-imidazolium bromide] + O
[1]
Conditions | mass density [kg/m3] | molar conductivity [S·m2/mol]
m1 = 0.1017 | 1001.8 | –
m1 = 0.2038 | 1006.13 | –
m1 = 0.3005 | 1010.26 | –
m1 = 0.3716 | – | 0.01169
m1 = 0.4033 | 1014.58 | –
m1 = 0.9047 | – | 0.01149
m1 = 1.268 | – | 0.01134
m1 = 1.963 | – | 0.01117
m1 = 2.512 | – | 0.01099
m1 = 3.102 | – | 0.01085
m1 = 3.708 | – | 0.01072
m1 = 4.273 | – | 0.01055
m1 = 4.944 | – | 0.01044
m1 = 5.55 | – | 0.01034

O=C[C@H](O)[C@@H](O)[C@H](O)[C@H](O)CO [D-glucose] + O
Conditions | mass density, [1] [kg/m3] | refractive index, [2]
m1 = 0.0104 | 997.75 | 1.3328
m1 = 0.03 | 999.09 | 1.3334
m1 = 0.05 | 1000.45 | 1.3339
m1 = 0.0705 | 1001.83 | 1.3343
m1 = 0.0899 | 1003.13 | 1.3349
m1 = 0.1102 | 1004.48 | 1.3352
m1 = 0.1301 | – | 1.3357
m1 = 0.1496 | – | 1.3361
m1 = 0.1691 | – | 1.3366
